Test results from article PMC9916883, “Betaine- and L-Carnitine-Based Ionic Liquids as Solubilising and Stabilising Agents for the Formulation of Antimicrobial Eye Drops Containing Diacerein” (International Journal of Molecular Sciences, 2023).
Values after ≈ are worked out from the molar mass of the structure shown. Like-named read-outs stand apart in the source and are kept apart here.

Tests used:
P. aeruginosa ATCC 27853 [1] = test: MIC determination (microdilution); format: cell-based, Pseudomonas aeruginosa
Experimental: (§1) A clinical isolate of S. aureus (W4) and the reference strain of P. aeruginosa ATCC 27853 were used in the study. For the preparation of stock cultures, bacterial strains were grown in Luria–Bertani broth (LB, Oxoid, Basingstoke, Hampshire, UK) until the late-log phase, subdivided into aliquots, and kept frozen at −80 °C until use. Identification and susceptibility testing of the S. aureus W4 strain were performed using MALDI-TOF (Bruker Daltonics, Bremen, Germany) and the BD Phoenix susceptibility testing system (BD, Milan, Italy), respectively.
(§2) The susceptibility of the bacterial strains to each of the tested compounds was assessed in terms of MIC values according to the standard microdilution method (Clinical and Laboratory Standards Institute–CLSI, 2018), with some modifications. Briefly, the bacteria were grown in LB broth until the exponential growth phase and then diluted in the same medium to reach a final density of 5 × 10^6 CFU/mL. A volume of 10 μL of the bacterial suspensions was added to 90 μL of LB in a 96-well plate in the absence (viability control) or presence of the test compound at different concentrations.

[2] = Phase solubility study (apparent solubility of DIA and Rhe with ILs or HP-β-CD); format: physicochemical; conditions: 25 °C, aqueous with cosolvent or surfactant or cyclodextrin, thermodynamic from solid, read-out: saturation solubility
Experimental: The increase in the apparent solubility of both DIA and Rhe in the presence of the ILs was evaluated. Briefly, aqueous solutions of the ILs were prepared in the range of 0–200 mg/mL, and an excess of either DIA or Rhe was added to each vial. The samples were then incubated for 30 min at 25°C, and the undissolved drug was removed by centrifugation at […] for 15 min (Hettich Mikro 120 centrifuge). […] The drug concentration was measured by UV–Vis analysis. The DIA phase solubility study was also compared to the phase solubility study of DIA in the presence of HP-β-CD as a reference solubility/stability-enhancing excipient. […] The complexation K was calculated through Higuchi and Connors’ method, as previously reported.
The size distribution and zeta potential values of the ILs’ aggregates in aqueous solutions were evaluated by using a Zetasizer Nano ZS (Malvern) at 25 °C. The samples were prepared by adding an excess of either DIA or Rhe (5 mg/mL) to the aqueous IL solutions, incubating them for 30 min at 25 °C, and finally removing the excess drugs by centrifugation. […] In contrast, for PB solutions, the solutions were prepared in water, and […] of 100 mM pH 7 phosphate buffer was added per 1 mL of aqueous solution, directly in the cuvette, before the dynamic light scattering (DLS) analysis started. The concentrations of the solubilised drug were determined by UV–Vis analysis.

[3] = system: BALB/3T3 clone A31 fibroblast cells; test: Cytotoxicity screening (WST-1); format: cell-based, murine; conditions: Mus musculus, 4 h incubation, read-out: IC50 of cell viability
Experimental: BALB/3T3 clone A31 fibroblast cells were grown in Dulbecco’s Modified Eagle Medium (DMEM), supplemented with 2 mM L-glutamine, 1% penicillin/streptomycin, and 10% bovine calf serum. Cells were grown in a CO2 incubator (Heracell 150i series) at 37 °C and 5% CO2, with cells sub-cultured at 80–90% confluency. The cell monolayers were rinsed with PBS and treated with trypsin–EDTA to detach the cells before their resuspension in fresh media. A subconfluent monolayer of BALB/3T3 clone A31 fibroblast cells was trypsinised, centrifuged at 1000 rpm for 5 min, resuspended in growth medium, and counted.
A cytotoxicity screening was carried out for both ILs (range […]), as well as DIA and Rhe (0.5–200 mg/mL). Briefly, BALB/3T3 clone A31 fibroblast cells were seeded in each well of 96-well plates at a seeding density of 6 × 10^3 cells/well for 24 h, until 60–70% confluence was reached. After 24 h, the medium was then removed from each well and replaced with DMEM containing the samples.
After 4 h of incubation, the media were removed, replaced with fresh medium containing 10% WST-1 reagent solution, and maintained for 4 h at 37° C with 5% CO2. Afterwards, formazan dye absorbance was quantified at 450 nm with the reference wavelength at 655 nm by using a multilabel reader (BioTek 800/TS, Thermo Scientific).

S. aureus W4 = test: Biofilm inhibition assay (crystal violet); format: cell-based, Staphylococcus aureus; conditions: 12.5 μg/mL
Experimental: (§3) After overnight growth in LB, cultures of P. aeruginosa ATCC 27853 and S. aureus W4 were diluted 1:100 in LB or in 50% tryptone soy broth (TSB, Oxoid) supplemented with 0.25% glucose (Sigma), respectively. The bacterial suspensions were dispensed into flat-bottomed polystyrene 96-well microplates (Corning Costar, Lowell, MA, USA) in the presence of sub-MIC concentrations of Rhe and DIA (3.12, 6.25, and 12.5 μg/mL). A sample containing 0.8 DMSO % (corresponding to the highest concentration of DMSO tested) was used as a control. The microplates were incubated statically at 37 °C for 24 h, and the biofilm biomass was estimated by CV (Sigma-Aldrich) staining assay, as previously described.

[4] = system: S. aureus (clinical isolate W4); test: MIC determination (microdilution); format: cell-based, Staphylococcus aureus
Experimental: as §1, §2

P. aeruginosa ATCC 27853 [5] = test: Biofilm inhibition assay (crystal violet); format: cell-based, Pseudomonas aeruginosa; conditions: any of the concentrations tested (3.12, 6.25, 12.5 μg/mL)
Experimental: as §3

[6] = system: murine fibroblast NIH 3T3 cells; parameters: method as in PMID 20302969, doi:10.1039/c0gc00813c; conditions: ref [29],[30]; cited from earlier work

| Compound | MIC (P. aeruginosa ATCC 27853 [1]; Pseudomonas aeruginosa, ATCC27853, planktonic cells, 24 h, 37 °C) [µg/mL] | antibacterial effect (P. aeruginosa ATCC 27853 [1]; in words (discussion)) | solubility at 30 min ([2]; in Bet6 solutions) [µg/mL] | solubility at 30 min ([2]; in Carn6 solutions) [µg/mL] | IC50 [3] [µg/mL] | biofilm formation (CV staining, OD 570 nm) (S. aureus W4) | MIC ([4]; Staphylococcus aureus, planktonic cells, 24 h, 37 °C) [µg/mL] | antibacterial effect ([4]; in words (discussion)) | biofilm formation (CV staining, OD 570 nm), difference vs control (P. aeruginosa ATCC 27853 [5]) | IC50 [6] [µg/mL] |
| --- | --- | --- | --- | --- | --- | --- | --- | --- | --- | --- |
| O=C(O)c1cc(O)c2c(c1)C(=O)c1cccc(O)c1C2=O [Rhe, rhein] | > 50 | inactive | 220 (≈ 774 µM) | 130 (≈ 457 µM) | 6.7 (≈ 23.6 µM) | statistically significant reduction in biofilm formation | 50 (≈ 176 µM) | exert antibacterial effects | not statistically significant | – |
| benzalkonium chloride [Bak] | – | – | – | – | – | – | – | – | – | 9.4 |
